Assay results reported in US11690803B2, “Tumor pH-shiftable coating and the nucleus-directed nanoparticles facilitate the targeted chemotherapy and gene therapy against multiple cancers and use thereof” (National Yang Ming Chiao Tung University, priority 2019, dated 2023).

Experiments:
[1] = Biosafety evaluation by serum biochemical tests; format: in vivo; settings: tumor-bearing mice, 48 h after last treatment
Procedure: Tumor-bearing mice were treated as described above. Blood samples were taken from the orbital sinus of mice at 48 h after the final injection. The harvested samples were put at 37° C. to induce the clotting reaction and centrifuged for 15 min. The resultant serum samples were stored at −80° C. until further analysis. The functions of liver, kidney and heart were examined by detecting the serum levels of glutamate pyruvate transaminase (GPT), creatinine (CRE), and creatine kinase-MB (CK-MB) using the corresponding activity assay kits (Fujifilm, Tokyo, Japan) according to the manufacturer's instruction using a clinical dry chemistry analyzer (Fuji Dri-Chem 7000V, Fujifilm Corporation, Tokyo, Japan).
Data shown indicate the mean±SD of four experiments.

RBCs from rat = assay: Hemolysis assay; format: cell-based; settings: 37° C., 24 h, Triton X as positive control
Procedure: 7×10^7 RBCs from rat were separated by centrifugation of whole blood. The supernatant containing plasma and platelets were removed. The pellets were washed by PBS until the supernatant was clear. Different formulations were diluted to a required concentration and added to the tubes containing 1 mL diluted RBCs. The cell suspension was mixed gently and incubated at 37° C. for 24 h. Triton X-100 was served as a positive control. Hemoglobin released from RBCs was measured spectrophotometrically. The concentration of the formed product was measured at 540 nm using an ELISA reader (TECAN, Mannedorf, Switzerland) to qualify the toxicity of liposomes to RBCs.

**Q.** Which “Serum levels of GPT or GOT, CRE, and CK-MB or LDH” value [1] does the source give for `O=C1[O][Pt]2([NH][C@@H]3CCCC[C@H]3[NH]2)[O]C1=O` [Oxa, oxaliplatin] here?
**A.** remarkably escalated

**Q.** With Triton X-100 as the compound, how does the Hemolysis (RBCs from rat) read?
**A.** 100%
